Experiment [1] deals with Acetylcholinesterase (Electrophorus electricus) (UniProt O42275). As to the kind of experiment: Inhibition of electric eel AChE at 10^-6 M preincubated for 15 mins followed by acetylthiocholine iodide substrate addition measured for 5 mins by Ellman's spectrophotometric method relative to control. Background: In Ellman's method for cholinesterases, released thiocholine reacts with DTNB.

The target of a further experiment is Acetylcholinesterase (Electrophorus electricus, UniProt O42275). As to the kind of experiment: Inhibition of electric eel AChE preincubated for 15 mins followed by acetylthiocholine iodide substrate addition measured for 5 mins by Ellman's spectrophotometric method.
For experiment [2], the target named is Acetylcholinesterase (Electrophorus electricus) (UniProt O42275). The experiment can be described thus: Inhibition of electric eel AChE at 10^-7 M preincubated for 15 mins followed by acetylthiocholine iodide substrate addition measured for 5 mins by Ellman's spectrophotometric method relative to control.

Some results are limits rather than exact numbers.

Sequence of Acetylcholinesterase (O42275 whole entry): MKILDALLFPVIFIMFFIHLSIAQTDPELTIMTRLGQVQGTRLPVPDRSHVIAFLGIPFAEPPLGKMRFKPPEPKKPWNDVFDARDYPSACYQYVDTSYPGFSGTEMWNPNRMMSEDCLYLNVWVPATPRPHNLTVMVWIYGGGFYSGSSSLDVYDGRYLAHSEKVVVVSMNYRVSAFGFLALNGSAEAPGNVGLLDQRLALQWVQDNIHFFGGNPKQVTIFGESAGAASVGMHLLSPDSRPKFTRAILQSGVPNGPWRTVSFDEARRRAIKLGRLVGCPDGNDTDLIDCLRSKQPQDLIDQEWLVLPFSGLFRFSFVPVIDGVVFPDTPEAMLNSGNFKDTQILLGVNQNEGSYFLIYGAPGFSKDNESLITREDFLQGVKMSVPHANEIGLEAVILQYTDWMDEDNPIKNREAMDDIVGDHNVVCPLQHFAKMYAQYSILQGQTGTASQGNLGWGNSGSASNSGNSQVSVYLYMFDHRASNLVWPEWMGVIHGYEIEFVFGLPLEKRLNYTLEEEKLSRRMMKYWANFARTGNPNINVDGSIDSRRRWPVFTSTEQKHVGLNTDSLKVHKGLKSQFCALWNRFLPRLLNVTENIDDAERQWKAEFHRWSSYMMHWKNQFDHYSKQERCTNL
Sequence of Acetylcholinesterase (Electrophorus electricus) (O42275 24-633 limits assumed): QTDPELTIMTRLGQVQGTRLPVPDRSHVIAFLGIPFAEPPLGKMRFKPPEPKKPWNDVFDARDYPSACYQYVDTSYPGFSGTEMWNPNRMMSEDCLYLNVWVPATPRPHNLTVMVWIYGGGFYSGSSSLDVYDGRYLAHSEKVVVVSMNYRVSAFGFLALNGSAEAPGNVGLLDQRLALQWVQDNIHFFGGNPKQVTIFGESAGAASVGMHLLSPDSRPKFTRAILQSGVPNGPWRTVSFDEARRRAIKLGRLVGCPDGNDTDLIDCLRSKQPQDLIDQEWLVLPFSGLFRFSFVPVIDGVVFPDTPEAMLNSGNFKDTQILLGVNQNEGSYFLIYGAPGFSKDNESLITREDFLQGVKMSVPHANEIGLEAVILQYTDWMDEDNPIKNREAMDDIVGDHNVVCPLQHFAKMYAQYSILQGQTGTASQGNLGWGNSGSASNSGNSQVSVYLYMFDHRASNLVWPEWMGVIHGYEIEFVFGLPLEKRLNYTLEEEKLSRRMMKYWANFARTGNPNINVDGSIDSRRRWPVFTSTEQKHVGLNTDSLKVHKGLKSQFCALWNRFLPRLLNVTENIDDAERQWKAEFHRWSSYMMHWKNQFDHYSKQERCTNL

`COc1ccc2nc(NC(=O)CN3CCN(Cc4ccc(C(F)(F)F)cc4)CC3)sc2c1`: the inhibition in experiment [1] is greater than 50%. At Acetylcholinesterase, this molecule returned an IC50 of 0.274 µM.
`COc1ccc2nc(NC(=O)CN3CCN(CCN(C)C)CC3)sc2c1`: the inhibition in experiment [1] and in experiment [2] was greater than 50% each time. Also, at Acetylcholinesterase, the half-inhibitory concentration (IC50) is 0.0946 µM.
Consider `COc1ccc2nc(NC(=O)CN3CCN(CCCN(C)C)CC3)sc2c1`, for which the inhibition in experiment [1] and in experiment [2] was greater than 50% each time. Further, the concentration for half-maximal inhibition (IC50) on Acetylcholinesterase amounted to 0.117 µM.

The inhibition is the relative decrease from the control value, in per cent. The low end stands for a weak effect, the high end for a strong effect. For orientation: IC50 means the concentration needed to halve the response being measured. The low end stands for higher potency, the high end for lower potency.

(Values after ChEMBL document CHEMBL3864165, “Design, synthesis, and AChE inhibitory activity of new benzothiazole-piperazines” (Bioorg Med Chem Lett, 2016).)
